ChEMBL document CHEMBL3817727, “Fluorinated thiazolidinols cause cell death in A549 lung cancer cells via PI3K/AKT/mTOR and MAPK/ERK signalling pathways” (Medchemcomm, 2016)
Calls of active or inactive are those of the source. No cut-off for these calls is given here.

Key:
[1] = test system: MDA-MB-231; experiment: Cytotoxicity against human MDA-MB-231 cells assessed as reduction in cell viability after 24 hrs by MTT assay; format: functional, cell-based; conditions: MDA-MB-231, 24 h
[2] = test system: MCF7; experiment: Cytotoxicity against human MCF7 cells assessed as reduction in cell viability after 24 hrs by MTT assay; format: functional, cell-based; conditions: MCF7, 24 h
[3] = test system: HeLa; experiment: Cytotoxicity against human HeLa cells assessed as reduction in cell viability after 24 hrs by MTT assay; format: functional, cell-based
[4] = test system: A549; experiment: Cytotoxicity against human A549 cells assessed as reduction in cell viability after 24 hrs by MTT assay; format: functional, cell-based; conditions: A549, 24 h
[5] = test system: A549; experiment: Cell cycle arrest in human A549 cells assessed as accumulation at G2/M phase at 4 uM after 24 hrs by propidium iodide staining based flow cytometry (reference value: 21.58%); format: functional
[6] = test system: A549; experiment: Inhibition of PI3K/Akt/mTOR signalling in human A549 cells assessed as reduction in Akt phosphorylation at Ser-473 residue at 4 uM after 24 hrs by Western blot analysis; format: cell-based
[7] = test system: A549; experiment: Cell cycle arrest in human A549 cells assessed as accumulation at S phase at 4 uM after 24 hrs by propidium iodide staining based flow cytometry (reference value: 8.85%); format: functional
[8] = test system: A549; experiment: Induction of cell death in human A549 cells assessed as LC3-mediated cytoplasmic vacuolation by Hoechst staining based assay; format: functional
[9] = test system: A549; experiment: Induction of autophagy in human A549 cells assessed as increase in Atg7 expression after 24 hrs by Western blot analysis; format: functional, cell-based
[10] = test system: A549; experiment: Cell cycle arrest in human A549 cells assessed as accumulation at subG1 phase at 4 uM after 24 hrs by propidium iodide staining based flow cytometry (reference value: 1.11%); format: functional
[11] = test system: A549; experiment: Inhibition of PI3K/Akt/mTOR signalling in human A549 cells assessed as downregulation of PI3K expression at 4 uM after 24 hrs by Western blot analysis; format: cell-based
[12] = test system: A549; experiment: Inhibition of PI3K/Akt/mTOR signalling in human A549 cells assessed as downregulation of Akt expression at 4 uM after 24 hrs by Western blot analysis; format: cell-based
[13] = test system: A549; experiment: Induction of cell death in human A549 cells assessed as increase in LC3-2 expression after 24 hrs by Western blot analysis; format: functional, cell-based
[14] = test system: A549; experiment: Inhibition of RAS/MEK/ERK signalling in human A549 cells assessed as decrease in phosphorylated MEK1/2 level at 4 uM after 24 hrs by Western blot analysis; format: cell-based
[15] = test system: A549; experiment: Upregulation of PTEN expression in human A549 cells at 4 uM after 24 hrs by Cy-3 staining based immunoblot analysis; format: functional, cell-based
[16] = test system: A549; experiment: Inhibition of RAS/MEK/ERK signalling in human A549 cells assessed as decrease in phosphorylated ERK1/2 level at 4 uM after 24 hrs by Western blot analysis; format: cell-based
[17] = test system: A549; experiment: Cell cycle arrest in human A549 cells assessed as accumulation at G0/G1 phase at 4 uM after 24 hrs by propidium iodide staining based flow cytometry (reference value: 69.5%); format: functional
[18] = test system: A549; experiment: Inhibition of PI3K/Akt/mTOR signalling in human A549 cells assessed as downregulation of mTOR expression at 4 uM after 24 hrs by Western blot analysis; format: cell-based

OC1(C(F)(F)F)CS/C(=N\c2ccc(F)cc2)N1c1ccc(F)cc1 (stereo not drawn)
IC50 [1]: 21.3 µM | IC50 [2]: 34.1 µM | IC50 [3]: 30.7 µM | IC50 [4]: 14.8 µM

OC1(C(F)(F)F)CS/C(=N\c2ccc(Cl)c(C(F)(F)F)c2)N1Cc1cccs1 (stereo not drawn)
IC50 [1]: 4.48 µM | Activity [5]: 16.15% | inhibition [6]: Active | Activity [7]: 5.81% | IC50 [2]: 11.4 µM | Activity [8]: Active | Activity [9]: Active | Activity [10]: 3.57% | IC50 [3]: 6.41 µM | inhibition [11]: Active | inhibition [12]: Active | Activity [13]: Active | inhibition [14]: Active | Activity [15]: Active | inhibition [16]: Active | Activity [17]: 75.3% | inhibition [18]: Active | IC50 [4]: 3.57 µM

CC(C)(C)N1/C(=N/c2ccc(Cl)c(C(F)(F)F)c2)SCC1(O)C(F)(F)F (stereo not drawn)
IC50 [1]: 4.03 µM | Activity [5]: 6.79% | inhibition [6]: Active | Activity [7]: 3.05% | IC50 [2]: 32.3 µM | Activity [9]: Active | Activity [10]: 8.63% | IC50 [3]: 5.54 µM | inhibition [11]: Active | inhibition [12]: Active | Activity [13]: Active | inhibition [14]: Active | Activity [15]: Active | inhibition [16]: Active | Activity [17]: 82.31% | inhibition [18]: Active | IC50 [4]: 3.26 µM

OC1(C(F)(F)F)CS/C(=N\c2ccccc2)N1C1CCCCC1 (stereo not drawn)
IC50 [1]: 22.5 µM | IC50 [2]: 30.1 µM | IC50 [3]: 28.2 µM | IC50 [4]: 13.8 µM

OC1(C(F)(F)F)CS/C(=N\c2ccc(Cl)c(C(F)(F)F)c2)N1CCN1CCOCC1 (stereo not drawn)
IC50 [1]: 5.92 µM | Activity [5]: 10.63% | inhibition [6]: Active | Activity [7]: 1.89% | IC50 [2]: 18.2 µM | Activity [9]: Active | Activity [10]: 6.04% | IC50 [3]: 6.24 µM | inhibition [11]: Active | inhibition [12]: Active | Activity [13]: Active | inhibition [14]: Active | Activity [15]: Active | inhibition [16]: Active | Activity [17]: 81.78% | inhibition [18]: Active | IC50 [4]: 4.15 µM

OC1(C(F)(F)F)CS/C(=N\c2ccc(F)c(Cl)c2)N1c1ccccc1 (stereo not drawn)
IC50 [1]: 19 µM | IC50 [2]: 22.9 µM | IC50 [3]: 19.9 µM | IC50 [4]: 16.8 µM

OC1(C(F)(F)F)CS/C(=N\c2ccccc2)N1Cc1cccs1 (stereo not drawn)
IC50 [1]: 23.1 µM | IC50 [2]: 33.8 µM | IC50 [3]: 24.8 µM | IC50 [4]: 11.1 µM

COc1ccc(N2/C(=N/c3ccc(F)cc3)SCC2(O)C(F)(F)F)cc1 (stereo not drawn)
IC50 [1]: 6.64 µM | IC50 [2]: 28.7 µM | IC50 [3]: 6.98 µM | IC50 [4]: 4.58 µM

OC1(C(F)(F)F)CS/C(=N\c2cccc(C(F)(F)F)c2)N1c1cccc(C(F)(F)F)c1 (stereo not drawn)
IC50 [1]: 3.32 µM | Activity [5]: 8.15% | inhibition [6]: Active | Activity [7]: 1.71% | IC50 [2]: 6.69 µM | Activity [8]: Active | Activity [9]: Active | Activity [10]: 3.81% | IC50 [3]: 3.57 µM | inhibition [11]: Active | inhibition [12]: Active | Activity [13]: Active | inhibition [14]: Active | Activity [15]: Active | inhibition [16]: Active | Activity [17]: 86.61% | inhibition [18]: Active | IC50 [4]: 2.84 µM

OC1(C(F)(F)F)CS/C(=N\c2ccc(C(F)(F)F)cc2)N1CCc1ccccn1 (stereo not drawn)
IC50 [1]: 20.9 µM | IC50 [2]: 25.3 µM | IC50 [3]: 21 µM | IC50 [4]: 12.8 µM

OC1(C(F)(F)F)CS/C(=N\c2ccc(Cl)c(C(F)(F)F)c2)N1CCc1ccccn1 (stereo not drawn)
IC50 [1]: 19.6 µM | IC50 [2]: 11.3 µM | IC50 [3]: 7.12 µM | IC50 [4]: 6.02 µM
